In the supplement of paper PMC4862054:

Experiments:
Conditions in all cases: incubation time: 72 h
MCF-10A [1] = test: normalised response (% of control), CellTox Green; higher = less cell death (100 = DMSO, 0 = benzethonium chloride kill control)
Procedure, shortened: (§1)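 Breast cancer cell lines in 20 µl suspension were added to 384-well plates containing compound at 5 concentrations, spaced in 10-fold steps across a 10,000-fold range chosen for each compound, and incubated for 72 h. CellTox Green fluorescence was read at 485/520 nm, followed by CellTiter-Glo luminescence after 10 min at room temperature. Signals on each plate were normalised so that 0.1 % DMSO equals 100 and a positive kill control equals 0. Every value in the table is the normalised signal at one concentration of the series.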

MDA-MB-453 [2] = test: as above
Procedure, shortened: as §1

CAL-85-1 [3] = test: as above
Procedure, shortened: as §1

HCC1599 [4] = test: as above
Procedure, shortened: as §1

CAL-51 [5] = test: as above
Procedure, shortened: as §1

Hs578T [6] = test: as above
Procedure, shortened: as §1

HDQ-P1 [7] = test: as above
Procedure, shortened: as §1

MDA-MB-231 [8] = test: as above
Procedure, shortened: as §1

CAL-120 [9] = test: as above
Procedure, shortened: as §1

DU-4475 [10] = test: as above
Procedure, shortened: as §1

MDA-MB-436 [11] = test: as above
Procedure, shortened: as §1

MFM-223 [12] = test: as above
Procedure, shortened: as §1

CAL-148 [13] = test: as above
Procedure, shortened: as §1

BT-549 [14] = test: as above
Procedure, shortened: as §1

HCC1143 [15] = test: as above
Procedure, shortened: as §1

MCF-10A [16] = test: normalised response (% of control), CellTiter-Glo; higher = more viable cells (100 = DMSO, 0 = benzethonium chloride kill control)
Method: (§2)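 DSRT, 72 h incubation, CellTox Green / CellTiter-Glo readout. Signal is normalised to DMSO and benzethonium chloride controls. Value is the normalised response at the highest dose.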

SK-BR-3 = test: as above
Method: as §2

MDA-MB-453 [17] = test: as above
Method: as §2

CAL-85-1 [18] = test: as above
Method: as §2

HCC1599 [19] = test: as above
Method: as §2

CAL-51 [20] = test: as above
Method: as §2

Hs578T [21] = test: as above
Method: as §2

HDQ-P1 [22] = test: as above
Method: as §2

MDA-MB-231 [23] = test: as above
Method: as §2

BT-474 [24] = test: as above
Method: as §2

CAL-120 [25] = test: as above
Method: as §2

DU-4475 [26] = test: as above
Method: as §2

MDA-MB-436 [27] = test: as above
Method: as §2

MFM-223 [28] = test: as above
Method: as §2

CAL-148 [29] = test: as above
Method: as §2

HCC1937 [30] = test: as above
Method: as §2

BT-549 [31] = test: as above
Method: as §2

MDA-MB-468 [32] = test: as above
Method: as §2

HCC1143 [33] = test: as above
Method: as §2

BT-474 [34] = test: normalised response (% of control), CellTox Green; higher = less cell death (100 = DMSO, 0 = benzethonium chloride kill control)
Procedure, shortened: as §1

HCC1937 [35] = test: as above
Procedure, shortened: as §1

MDA-MB-468 [36] = test: as above
Procedure, shortened: as §1

SMILES | normalised response (MCF-10A [1]) | normalised response (MDA-MB-453 [2]) | normalised response (CAL-85-1 [3]) | normalised response (HCC1599 [4]) | normalised response (CAL-51 [5]) | normalised response (Hs578T [6]) | normalised response (HDQ-P1 [7]) | normalised response (MDA-MB-231 [8]) | normalised response (CAL-120 [9]) | normalised response (DU-4475 [10]) | normalised response (MDA-MB-436 [11]) | normalised response (MFM-223 [12]) | normalised response (CAL-148 [13]) | normalised response (BT-549 [14]) | normalised response (HCC1143 [15]) | normalised response (MCF-10A [16]) | normalised response (SK-BR-3) | normalised response (MDA-MB-453 [17]) | normalised response (CAL-85-1 [18]) | normalised response (HCC1599 [19]) | normalised response (CAL-51 [20]) | normalised response (Hs578T [21]) | normalised response (HDQ-P1 [22]) | normalised response (MDA-MB-231 [23]) | normalised response (BT-474 [24]) | normalised response (CAL-120 [25]) | normalised response (DU-4475 [26]) | normalised response (MDA-MB-436 [27]) | normalised response (MFM-223 [28]) | normalised response (CAL-148 [29]) | normalised response (HCC1937 [30]) | normalised response (BT-549 [31]) | normalised response (MDA-MB-468 [32]) | normalised response (HCC1143 [33]) | normalised response (BT-474 [34]) | normalised response (HCC1937 [35]) | normalised response (MDA-MB-468 [36])
CS(=O)(=O)c1ccc(C2=C(c3ccccc3)C(=O)OC2)cc1 [Rofecoxib] (10000 nM) | 102% | 66.6% | 84.6% | 97.2% | 98.7% | 128% | 112% | 108% | 105% | 101% | 77.7% | 68.2% | 98.8% | 102% | 114% | 109% | 106% | 98.6% | 100% | 100% | 71.8% | 110% | 99.8% | 100% | 94.5% | 102% | 100% | 111% | 102% | 119% | 106% | 103% | 113% | 105% |  |  | 
CCCCCCCCCCCCCCCCCCOP(=O)([O-])OC1CC[N+](C)(C)CC1 [Perifosine] (2500 nM) | 117% | 83.9% | 97.4% | 99.3% | 96.4% | 128% | 109% | 106% | 107% | 95.7% | 78% | 90.3% | 96.9% | 56.7% | 67% | 63.7% | 60.4% | 98.6% | 102% | 86.3% | 80.7% | 96.9% | 84.7% | 104% | 104% | 104% | 95.9% | 87.9% | 92.6% | 79.9% | 52.7% | 111% | 97.5% | 99.1% | 95.6% | 108% | 133%
COc1cc2ncnc(Nc3ccc(F)c(Cl)c3)c2cc1NC(=O)/C=C/CN1CCCCC1 [Dacomitinib] (1000 nM) | 96.8% | 96.3% | 38.7% | 99.1% | 109% | 115% | 94.1% | 103% | 98.7% | 99.1% |  | 99.5% | 96.7% | 74.8% | 75.7% | 35.8% | 21.1% | 56.2% | 46.8% | 105% | 116% | 90.7% | 68.1% | 84.5% | 86.8% | 95.6% | 97.8% | 84.4% | 93.1% | 83.9% | 84.3% | 80.9% | 65.3% | 94% |  |  | 121%
N#CCNC(=O)c1ccc(-c2ccnc(Nc3ccc(N4CCOCC4)cc3)n2)cc1 [Momelotinib] (10000 nM) | 90.5% | 70.6% | 54.6% | 90% | 85.1% | 87% | 100% | 19% | 97.4% | 95.5% | 78% | 97.5% | 100% | 31.3% | 98% | 43% | 55.1% | 104% | 43.7% | 96.8% | 58% | 41.4% | 87.1% | 46.8% | 55.8% | 50.2% | 64.8% | 71% | 67.2% | 97.3% | 84.5% | 23.5% | 22.2% | 66.6% | 101% | 102% | 22%
CCC(C)(C)C(=O)O[C@H]1C[C@@H](C)C=C2C=C[C@H](C)[C@H](CC[C@@H]3C[C@@H](O)CC(=O)O3)[C@H]21 [Simvastatin] (10000 nM) | 23.2% | 104% | 84.3% |  | 46.8% |  | 82.2% | -117% | 77.4% | 99% | 51.8% | 104% | 104% | 98.6% |  | 23.9% | 98.9% | 93.3% | 84.4% | 103% | 78.4% | 91.2% | 65% | 30% | 47.2% | 91.8% | 94.2% | 84.9% | 97.9% | 102% | 92.6% | 87.7% | 83.2% | 95.9% | 99.9% | 95.6% | 
CC(=O)Nc1ccc(C(=O)Nc2ccccc2N)cc1 [Tacedinaline] (1000 nM) | 77.3% | 98.2% | 92.3% | 98.2% | 96.2% | 99.3% | 104% | 111% | 101% | 99% | 107% | 105% | 97.9% | 114% | 75.3% | 99.7% | 98.9% | 98.7% | 103% | 120% | 113% | 92.1% | 98.5% | 95.7% | 95.2% | 105% | 98% | 95% | 99.7% | 95.2% | 97.2% | 107% | 108% | 100% | 97.7% | 83.6% | 58.9%
CC(C)Cn1cnc2c(N)nc3ccccc3c21 [Imiquimod] (2500 nM) | 88.2% | 93.9% | 83.7% | 101% | 106% | 130% |  | 96.5% | 96.6% | 99.3% | 102% |  | 100% | 72.1% | 104% | 95% | 106% | 105% | 104% | 94.9% | 92.8% | 105% | 103% | 98.2% | 96% | 95.8% | 103% | 106% | 103% | 106% | 99.6% | 98% | 109% | 94.5% | 101% | 106% | 
NC(=O)Nc1cc(-c2cccc(F)c2)sc1C(=O)N[C@H]1CCCNC1 [AZD7762] (1000 nM) | 90.8% | 87% | -20.6% | 98% | 14.1% | 40.7% | 90.3% | 48.5% | 91.8% | 99.9% | 84.9% | 95.8% | 87.1% | 94.3% | 103% | 31.1% | 12% | 40.8% | 15.2% | 10.2% | 45.3% | 22.1% | 28% | 32% | 43% | 55.7% | 89.3% | 28.8% | 64.2% | 106% | 26.4% | 21.2% | 31.7% | 23.7% | 91.9% | 65.8% | 75.8%
O=C(O)c1ccc(-c2c[nH]c3ncc(-c4ccccc4)cc23)cc1C1CCCC1 (10000 nM) | 83.6% | 102% | 119% | 94% | 63.4% | 117% | 91% | 92.8% | 99.2% | 97.5% | 57.9% | 66.2% | 91.6% | 99.3% | 117% | 97.1% | 58.7% | 105% | 99.3% | 105% | 92.7% | 89% | 107% | 94.1% | 86.7% | 94.5% | 86.2% | 84.2% | 95% | 94.4% | 105% | 74.5% | 57% | 97.8% | 95.4% |  | 90.1%
